These results are taken from paper doi:10.1101/2025.08.13.670122v1 (bioRxiv, 2025).

Assay [1] deals with T1, AT1R (Homo sapiens, UniProt P30556).
T1 sequence (P30556 1-359): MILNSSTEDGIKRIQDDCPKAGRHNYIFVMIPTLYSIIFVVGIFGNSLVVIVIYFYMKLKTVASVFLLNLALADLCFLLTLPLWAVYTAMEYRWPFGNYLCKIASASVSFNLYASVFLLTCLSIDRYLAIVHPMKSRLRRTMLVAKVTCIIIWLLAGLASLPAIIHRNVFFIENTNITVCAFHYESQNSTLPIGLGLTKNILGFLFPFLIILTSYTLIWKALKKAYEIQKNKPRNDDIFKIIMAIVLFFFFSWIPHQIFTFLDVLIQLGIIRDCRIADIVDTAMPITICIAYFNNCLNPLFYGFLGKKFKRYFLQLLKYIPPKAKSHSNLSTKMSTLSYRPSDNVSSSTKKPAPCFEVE
Nature of the assay: β-arrestin2 recruitment BRET (β-arrestin2-RLucII/rGFP-CAAX) in HEK293 cells expressing AT1R. Format: cell-based. As to conditions: for Emax βarr2 (% AngII): HEK293/AT1R, β-arrestin2 BRET, response of the ligand at 10 μM, normalised to AngII; for EC50: HEK293 cells transiently expressing AT1R, β-arrestin2-RLucII/rGFP-CAAX BRET, read 10 min after ligand, mean ± SEM of at least three to five independent experiments, SEM, read-out: EC50 βarr2. Also on record: expressed in transfected cells; host or cells: HEK293 cells, transient PEI transfection. The source says: (§1) We utilized a clonal cell line HEK293, referred to hereafter as HEK293 cells, which has been previously described.[7],[8] As a gracious gift from A. Inoue (Tohoku University, Sendai, Miyagi, Japan), CRISPR Gαq/11 and Gα12/13 knockout cell lines (ΔGq/11 and ΔG12/13, respectively), were derived as previously explained.[48] In brief, a CRISPR-Cas9 system was used to target either GNAQ and GNA11 or GNA12 and GNA13 genes in HEK293T cells simultaneously to generate the Gαq/11 and Gα12/13 knockout cell lines. For the production of adenovirus, we utilized HEK293A cells. All cells were grown in DMEM supplemented with 10% FBS and Penicillin-Streptomycin-L-Glutamine (10000 IU penicillin, 10000 µg/mL Streptomycin, 200 mM L-Glutamine) at 37°C in T175 flasks under a 5% CO2 humidified chamber. Periodic testing was carried out for mycoplasma contamination (ABM™, Mycoplasma PCR Detection kit). For all biosensors used, cells underwent transfection with the PEI reagent, employing a PEI:DNA ratio of 3:1. For the Gαq biosensor, HEK293 cells were transfected with the plasmids coding for Gαq-RLucII (120 ng), Gβ1 (3000 ng), Gγ1-GFP10 (3000 ng), human AT1 (3000 ng) and Salmon sperm DNA (SSD) (880 ng). For the β-arrestin2 recruitment assay, HEK293 cells were transfected with the plasmids coding for 120 ng β-arrestin-2-RLucII, 3000 ng AT1, 3000 ng rGFP-CAAX, and 3880 ng SSD. For the measurement of PKC, HEK293 cells were transfected with 3000 ng AT1, 600 ng PKC-c1b, and 6400 ng SSD. […] 100 µL of the cell/DNA mixture was added to white 96-well plates and incubated at 37°C at 5% CO2 for 48 h. For the Rho assay, ΔG12/13 cells were seeded at a density of 9,000 cells per well in poly-ornithine-coated white 96-well plates and transfected the following day. In brief, 1 μg of total DNA in 100 μL of PBS was mixed with 100 μL of PBS containing 3 μL of 1 mg/mL PEI. For Rho signaling, 150 ng of AT1R DNA with 25 ng of PKN-RBD-RlucII [8], and 100 ng of rGFP-CAAX were used. Empty pcDNA was used to reach 1 µg of the total DNA amount in 100 μL of PBS. The DNA was then mixed with 100 μL of PBS containing 3 μL of 1 mg/mL PEI. After a 20-min incubation, the DNA/PEI complexes were dispensed into cells in 96-well plates (15 µL/well), and the experiment was carried out 48 h post-transfection.
On the day of the experiment, each well was washed with 80 µL of Tyrode’s buffer (140 mM NaCl, 2.7 mM KCl, 1 mM CaCl2, 12 mM NaHCO3, 5.6 mM D-glucose, 0.5 mM MgCl2, 0.37 mM NaH2PO4, 25 mM Hepes (pH 7.4)). This was followed by incubation for 1 h in Tyrode’s buffer at room temperature. For the Gαq, β-arrestin-2, and PKC biosensors used in HEK293 cells, coelenterazine 400A (at a final concentration of 5 μM) was added 10 min before stimulation. Cells were then stimulated with increasing doses of the indicated ligand, and BRET signals were measured using a Tristar2 (Berthold) microplate reader 10 min later. For the PKC and Rho biosensors in VSMCs, and the Rho biosensor in ΔG12/13 cells, cells were similarly stimulated with ligands for 1 min, 1 min 30 s, and 3 min, respectively, before BRET measurement. […] BRET signals were then measured using a Synergy2 (BioTek) microplate reader. The applied filter set was 410/80 nm and 515/30 nm, designed to detect the light emissions of RlucII (Renilla luciferase) (donor) and rGFP (acceptor), respectively.
(In general: Recruitment of arrestin is a read-out of receptor activation apart from second messengers.)

For assay [2], the target named is T1, AT1R. Briefly: Rho BRET sensor (PKN-RBD-RlucII/rGFP-CAAX) in ΔG12/13 HEK293 cells expressing AT1R. Format: cell-based. Further details: expressed in transfected cells; host or cells: HEK293 cells, transient PEI transfection. The conditions noted are these: for Emax Rho Gαq/11 (% AngII): ΔG12/13 HEK293/AT1R, Rho BRET sensor, response at 10 μM, normalised to AngII; for EC50: ΔG12/13 HEK293 cells expressing AT1R, Rho (PKN-RBD-RlucII/rGFP-CAAX) BRET sensor, 3 min stimulation, mean ± SEM of at least three to five independent experiments, SEM, read-out: EC50 Rho Gαq/11.
Excerpt: as §1
On the day of the experiment, each well was washed with 80 µL of Tyrode’s buffer (140 mM NaCl, 2.7 mM KCl, 1 mM CaCl2, 12 mM NaHCO3, 5.6 mM D-glucose, 0.5 mM MgCl2, 0.37 mM NaH2PO4, 25 mM Hepes (pH 7.4)). This was followed by incubation for 1 h in Tyrode’s buffer at room temperature. […] Cells were then stimulated with increasing doses of the indicated ligand, and BRET signals were measured using a Tristar2 (Berthold) microplate reader 10 min later. […] BRET signals were then measured using a Synergy2 (BioTek) microplate reader. […]
A general note: In BRET a luciferase serves as donor, and the signal depends on an acceptor being close.

Assay [3] concerns the target T1, AT1R. Briefly: 125I-AngII displacement binding on HEK293 cells expressing human AT1R. Also on record: expressed in transfected cells; host or cells: HEK293 cells, transient; freeze-thaw broken cells. As to conditions: SEM; read-out: Ki (apparent affinity). The procedure:
HEK293 cells, transiently expressing the human AT1R (3 million cells transfected with 4 μg of AT1R plasmid), were washed once with PBS and submitted to one freeze-thaw cycle. […] Binding assays were carried out in 96-well plates. […] The incubation mixtures were filtered through binding plates (MultiScreen HTS, Merck Millipore, Cork, Ireland) and preincubated with the washing buffer for 1 h at 4°C to remove unbound ligands. The filtered membranes were washed thrice with 200 µL cold binding buffer (4°C). The filters with membranes were retrieved with punch tips (Filter Plates Punch Tips, Merck Millipore, Cork, Ireland). […] The dissociation constant (Ki value) was determined from the IC50 using the Cheng-Prusoff equation and presented as a mean ± SEM of three independent experiments, each conducted in duplicate. VSMC cells were seeded at 80,000 cells per well in poly-ornithine-coated 24-wells. […] The next day, cells were washed thrice with ice-cold PBS, solubilized in 0.5 mL of 0.2 M NaOH/0.05% SDS, and bound radioactivity was counted using a PerkinElmer Wizard 1470 automatic γ-counter. Protein quantities were evaluated using a Bradford assay.

For `CC[C@H](C)[C@H](NC(=O)[C@H](Cc1ccc(O)cc1)NC(=O)[C@@H](NC(=O)[C@H](CCCNC(=N)N)NC(=O)[C@@H](N)CC(=O)O)C(C)C)C(=O)N[C@@H](Cc1c[nH]cn1)C(=O)N1CCC[C@H]1C(=O)N[C@@H](Cc1ccc(OCc2ccccc2)cc1)C(=O)O` [compound 12], in assay [1], the “Emax βarr2 (% AngII)” value is 89 % AngII and the EC50 turned out to be 2.5 ± 0.4 nM. Moreover, in assay [2], the “Emax Rho Gαq/11 (% AngII)” value is 47 % AngII and the EC50 turned out to be 21 ± 5 nM. The Ki in assay [3] worked out at 1.4 ± 0.2 nM.
For `CC[C@H](C)[C@H](NC(=O)[C@H](Cc1ccc(O)cc1)NC(=O)[C@@H](NC(=O)[C@H](CCCNC(=N)N)NC(=O)[C@@H](N)CC(=O)O)C(C)C)C(=O)N[C@@H](Cc1c[nH]cn1)C(=O)N1CCC[C@H]1C(=O)N[C@@H](Cc1ccc(OC)cc1)C(=O)O` [compound 11], in that order: 105 % AngII, 0.36 ± 0.1 nM, 105 % AngII, 2.3 ± 0.5 nM and 0.23 ± 0.18 nM.
